Measured values: the NIST ThermoML archive (doi:10.1016/j.tca.2013.07.012)

Experiment: xn = mol fraction of the nth substance listed
Conditions: 101 kPa, Liquid, Vibrating tube method

OCC(O)CO [glycerol] + O
mass density [kg/m3]
Conditions | 298.15 K | 308.15 K | 323.15 K | 333.15 K | 348.15 K
x1 = 0.00209 | – | 996.42 | 990.39 | 985.55 | 977.18
x1 = 0.00439 | 1002.17 | 999.06 | 992.99 | 988.13 | 979.74
x1 = 0.0051 | 1002.98 | 999.87 | 993.77 | 988.9 | 980.52
x1 = 0.00657 | 1004.67 | 1001.52 | 995.4 | 990.52 | 982.12
x1 = 0.01072 | 1009.34 | 1006.11 | 999.9 | 994.98 | 986.55
x1 = 0.01633 | 1015.48 | 1012.13 | 1005.81 | 1000.85 | 992.29
x1 = 0.03504 | 1034.47 | 1030.74 | 1024.15 | 1018.99 | 1010.23
x1 = 0.05086 | 1049.05 | 1045.04 | 1038.23 | 1032.9 | 1024.05
x1 = 0.06775 | 1063.23 | 1058.94 | 1051.86 | 1046.46 | 1037.5
x1 = 0.1127 | 1095.24 | 1090.4 | 1082.82 | 1077.08 | 1067.8
x1 = 0.1559 | 1119.87 | 1114.62 | 1106.34 | 1100.45 | 1090.81
x1 = 0.206 | 1142.86 | 1137.3 | 1128.58 | 1122.53 | 1112.88
x1 = 0.256 | 1161.34 | 1155.48 | 1146.57 | 1140.39 | 1130.45
x1 = 0.3311 | 1183 | 1177.16 | 1168.09 | 1161.69 | 1151.47
x1 = 0.4012 | 1198.45 | 1192.55 | 1183.35 | 1177 | 1166.73
x1 = 0.4907 | 1213.75 | 1207.7 | 1198.19 | 1191.81 | 1181.85
x1 = 0.5828 | 1225.65 | 1219.6 | 1210.22 | 1203.79 | 1193.86
x1 = 0.6857 | 1236.32 | 1230.18 | 1220.77 | 1214.31 | 1204.27
x1 = 0.7494 | 1241.81 | 1235.6 | 1226.23 | 1219.8 | 1209.73
x1 = 0.8101 | 1246.48 | 1240.19 | 1230.76 | 1224.29 | 1214.26
x1 = 0.8528 | 1249.4 | 1243.15 | 1233.67 | 1227.21 | 1217.21
x1 = 0.882 | 1251.36 | 1245.07 | 1235.56 | 1229.08 | 1219.1
x1 = 0.9143 | 1253.31 | 1247.06 | 1237.53 | 1231.07 | 1221.08
x1 = 0.9408 | 1254.8 | 1248.55 | 1239.01 | 1232.59 | 1222.63
x1 = 0.9578 | 1255.73 | 1249.47 | 1239.93 | 1233.52 | 1223.59
x1 = 0.9792 | 1256.89 | 1250.63 | 1241.1 | 1234.68 | 1224.76
x1 = 0.9895 | 1257.41 | 1251.16 | 1241.61 | 1235.2 | 1225.28
x1 = 1 | 1257.91 | 1251.66 | 1242.11 | 1235.71 | 1225.79
